Results: the NIST ThermoML archive (doi:10.1021/je049762q)
± gives the expanded uncertainty stated by the source.

Assay: molar heat capacity at constant pressure
Settings: 101.33 kPa

Clc1cc(Cl)cc(Cl)c1 [1,3,5-trichlorobenzene]
molar heat capacity at constant pressure (271.48 K, Crystal): 148.45 ± 0.7 J/K/mol | molar heat capacity at constant pressure (273.41 K, Crystal): 149.19 ± 0.7 J/K/mol | molar heat capacity at constant pressure (275.71 K, Crystal): 150.21 ± 0.7 J/K/mol | molar heat capacity at constant pressure (276.13 K, Crystal): 150.38 ± 0.7 J/K/mol | molar heat capacity at constant pressure (277.82 K, Crystal): 150.9 ± 0.7 J/K/mol | molar heat capacity at constant pressure (278.84 K, Crystal): 151.41 ± 0.7 J/K/mol | molar heat capacity at constant pressure (279.93 K, Crystal): 151.88 ± 0.7 J/K/mol | molar heat capacity at constant pressure (280 K, Crystal): 151.91 ± 0.7 J/K/mol | molar heat capacity at constant pressure (281.54 K, Crystal): 152.27 ± 0.7 J/K/mol | molar heat capacity at constant pressure (282.02 K, Crystal): 152.47 ± 0.71 J/K/mol | molar heat capacity at constant pressure (284.11 K, Crystal): 153.34 ± 0.71 J/K/mol | molar heat capacity at constant pressure (286.19 K, Crystal): 153.9 ± 0.71 J/K/mol | molar heat capacity at constant pressure (288.26 K, Crystal): 154.74 ± 0.71 J/K/mol | molar heat capacity at constant pressure (290 K, Crystal): 155.34 ± 0.71 J/K/mol | molar heat capacity at constant pressure (290.32 K, Crystal): 155.45 ± 0.71 J/K/mol | molar heat capacity at constant pressure (292.38 K, Crystal): 156.18 ± 0.71 J/K/mol | molar heat capacity at constant pressure (294.42 K, Crystal): 157 ± 0.71 J/K/mol | molar heat capacity at constant pressure (295.88 K, Crystal): 157.42 ± 0.71 J/K/mol | molar heat capacity at constant pressure (296.46 K, Crystal): 157.62 ± 0.72 J/K/mol | molar heat capacity at constant pressure (298.15 K, Crystal): 158.32 ± 0.72 J/K/mol | molar heat capacity at constant pressure (298.44 K, Crystal): 158.35 ± 0.72 J/K/mol | molar heat capacity at constant pressure (300 K, Crystal): 159.02 ± 0.72 J/K/mol | molar heat capacity at constant pressure (300.52 K, Crystal): 159.26 ± 0.72 J/K/mol | molar heat capacity at constant pressure (300.98 K, Crystal): 159.48 ± 0.72 J/K/mol | molar heat capacity at constant pressure (303.51 K, Crystal): 160.28 ± 0.72 J/K/mol | molar heat capacity at constant pressure (306.03 K, Crystal): 161.24 ± 0.72 J/K/mol | molar heat capacity at constant pressure (306.98 K, Crystal): 161.57 ± 0.72 J/K/mol | molar heat capacity at constant pressure (308.54 K, Crystal): 162.23 ± 0.72 J/K/mol | molar heat capacity at constant pressure (310 K, Crystal): 162.81 ± 0.73 J/K/mol | molar heat capacity at constant pressure (310.04 K, Crystal): 162.82 ± 0.73 J/K/mol | molar heat capacity at constant pressure (311.04 K, Crystal): 163.32 ± 0.73 J/K/mol | molar heat capacity at constant pressure (311.61 K, Crystal): 163.35 ± 0.73 J/K/mol | molar heat capacity at constant pressure (313.11 K, Crystal): 164.04 ± 0.73 J/K/mol | molar heat capacity at constant pressure (313.53 K, Crystal): 164.32 ± 0.73 J/K/mol | molar heat capacity at constant pressure (314.66 K, Crystal): 164.78 ± 0.73 J/K/mol | molar heat capacity at constant pressure (316 K, Crystal): 165.48 ± 0.73 J/K/mol | molar heat capacity at constant pressure (317.72 K, Crystal): 166.19 ± 0.73 J/K/mol | molar heat capacity at constant pressure (318.47 K, Crystal): 166.69 ± 0.73 J/K/mol | molar heat capacity at constant pressure (320 K, Crystal): 167.31 ± 0.73 J/K/mol | molar heat capacity at constant pressure (320.77 K, Crystal): 167.5 ± 0.74 J/K/mol | molar heat capacity at constant pressure (320.93 K, Crystal): 167.74 ± 0.74 J/K/mol | molar heat capacity at constant pressure (323.38 K, Crystal): 168.94 ± 0.74 J/K/mol | molar heat capacity at constant pressure (323.83 K, Crystal): 169.15 ± 0.74 J/K/mol | molar heat capacity at constant pressure (325.82 K, Crystal): 170.31 ± 0.74 J/K/mol | molar heat capacity at constant pressure (326.88 K, Crystal): 171.2 ± 0.74 J/K/mol | molar heat capacity at constant pressure (328.25 K, Crystal): 171.54 ± 0.74 J/K/mol | molar heat capacity at constant pressure (330 K, Crystal): 172.45 ± 0.74 J/K/mol | molar heat capacity at constant pressure (335.92 K, Crystal): 175.78 ± 0.75 J/K/mol | molar heat capacity at constant pressure (335.92 K, Liquid): 197.88 ± 0.8 J/K/mol | molar heat capacity at constant pressure (338.89 K, Liquid): 198.6 ± 0.8 J/K/mol | molar heat capacity at constant pressure (340 K, Liquid): 198.76 ± 0.8 J/K/mol | molar heat capacity at constant pressure (341.83 K, Liquid): 199.12 ± 0.8 J/K/mol | molar heat capacity at constant pressure (341.91 K, Liquid): 199.27 ± 0.8 J/K/mol | molar heat capacity at constant pressure (344.76 K, Liquid): 199.68 ± 0.8 J/K/mol | molar heat capacity at constant pressure (344.94 K, Liquid): 199.89 ± 0.8 J/K/mol | molar heat capacity at constant pressure (347.69 K, Liquid): 200.32 ± 0.8 J/K/mol | molar heat capacity at constant pressure (347.97 K, Liquid): 200.6 ± 0.8 J/K/mol | molar heat capacity at constant pressure (350 K, Liquid): 200.94 ± 0.8 J/K/mol | molar heat capacity at constant pressure (350.61 K, Liquid): 200.99 ± 0.8 J/K/mol | molar heat capacity at constant pressure (350.99 K, Liquid): 201.16 ± 0.8 J/K/mol | molar heat capacity at constant pressure (353.52 K, Liquid): 201.63 ± 0.8 J/K/mol | molar heat capacity at constant pressure (354 K, Liquid): 201.88 ± 0.8 J/K/mol | molar heat capacity at constant pressure (356.43 K, Liquid): 202.27 ± 0.8 J/K/mol | molar heat capacity at constant pressure (357.01 K, Liquid): 202.62 ± 0.81 J/K/mol | molar heat capacity at constant pressure (359.34 K, Liquid): 202.96 ± 0.81 J/K/mol | molar heat capacity at constant pressure (360 K, Liquid): 203.18 ± 0.81 J/K/mol | molar heat capacity at constant pressure (360.01 K, Liquid): 203.24 ± 0.81 J/K/mol | molar heat capacity at constant pressure (362.24 K, Liquid): 203.68 ± 0.81 J/K/mol | molar heat capacity at constant pressure (363.01 K, Liquid): 203.85 ± 0.81 J/K/mol | molar heat capacity at constant pressure (365.13 K, Liquid): 204.35 ± 0.81 J/K/mol | molar heat capacity at constant pressure (366 K, Liquid): 204.62 ± 0.81 J/K/mol | molar heat capacity at constant pressure (368.02 K, Liquid): 204.99 ± 0.81 J/K/mol | molar heat capacity at constant pressure (368.98 K, Liquid): 205.5 ± 0.81 J/K/mol | molar heat capacity at constant pressure (370 K, Liquid): 205.46 ± 0.81 J/K/mol | molar heat capacity at constant pressure (370.9 K, Liquid): 205.72 ± 0.81 J/K/mol | molar heat capacity at constant pressure (371.95 K, Liquid): 206 ± 0.81 J/K/mol | molar heat capacity at constant pressure (373.78 K, Liquid): 206.29 ± 0.81 J/K/mol | molar heat capacity at constant pressure (374.93 K, Liquid): 206.68 ± 0.81 J/K/mol | molar heat capacity at constant pressure (376.65 K, Liquid): 206.96 ± 0.81 J/K/mol | molar heat capacity at constant pressure (377.9 K, Liquid): 207.35 ± 0.81 J/K/mol | molar heat capacity at constant pressure (379.51 K, Liquid): 207.51 ± 0.82 J/K/mol | molar heat capacity at constant pressure (380 K, Liquid): 207.79 ± 0.81 J/K/mol | molar heat capacity at constant pressure (380.86 K, Liquid): 207.96 ± 0.82 J/K/mol
